In patent US8389557B2, “Triazole derivatives useful as Axl inhibitors” (Rigel Pharmaceuticals, Inc., priority 2005, dated 2013) one finds IC50 data, which are given here for 30 compounds.

In the assay the target is T1, Axl (Homo sapiens, UniProt P30530).
T1 construct: endogenous in cells; host or cells: HeLa cells
T1 sequence (P30530 26-894): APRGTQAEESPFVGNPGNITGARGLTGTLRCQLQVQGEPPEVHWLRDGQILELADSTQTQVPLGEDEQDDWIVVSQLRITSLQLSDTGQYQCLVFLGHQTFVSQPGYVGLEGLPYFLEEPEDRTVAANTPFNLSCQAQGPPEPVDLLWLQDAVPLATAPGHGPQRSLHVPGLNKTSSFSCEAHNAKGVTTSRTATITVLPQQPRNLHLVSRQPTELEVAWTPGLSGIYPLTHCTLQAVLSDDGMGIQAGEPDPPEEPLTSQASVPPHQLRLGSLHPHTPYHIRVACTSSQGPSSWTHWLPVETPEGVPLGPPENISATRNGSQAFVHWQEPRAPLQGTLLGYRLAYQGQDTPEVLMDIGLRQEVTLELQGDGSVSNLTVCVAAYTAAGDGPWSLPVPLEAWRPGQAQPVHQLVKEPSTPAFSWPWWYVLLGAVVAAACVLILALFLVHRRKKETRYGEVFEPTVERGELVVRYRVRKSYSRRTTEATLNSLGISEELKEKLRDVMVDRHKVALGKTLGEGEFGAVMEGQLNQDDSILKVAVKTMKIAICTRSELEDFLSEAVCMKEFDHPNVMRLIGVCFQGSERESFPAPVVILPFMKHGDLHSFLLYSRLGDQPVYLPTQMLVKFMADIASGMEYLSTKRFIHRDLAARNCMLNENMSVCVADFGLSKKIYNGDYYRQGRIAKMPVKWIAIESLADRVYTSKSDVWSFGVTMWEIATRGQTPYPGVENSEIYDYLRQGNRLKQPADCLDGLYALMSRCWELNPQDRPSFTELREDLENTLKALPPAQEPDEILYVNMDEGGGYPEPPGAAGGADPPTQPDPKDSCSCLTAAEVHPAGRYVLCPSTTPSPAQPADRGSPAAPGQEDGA
The assay can be described thus: Phospho-Akt in-cell Western assay (inhibition of Axl activity). Type of assay: cell-based. The procedure, abridged:
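HeLa cells on poly-L-lysine, starved 24 h in 0.5% FCS DMEM with Axl/Fc 500 ng/mL, pre-treated with compound 1 h at 37° C. Axl stimulated 5 min by anti-Axl/anti-mouse antibody cross-linking. Fixed cells probed with anti-phospho-Akt and HRP secondary, chemiluminescence read.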

Where [1] appears, read: Table 3, Hela cells, Axl antibody cross-linking stimulation, phospho-Akt chemiluminescence.
The mark [2] stands for this setting: Table 7, Hela cells, Axl antibody cross-linking stimulation, phospho-Akt chemiluminescence.
The mark [3] stands for this setting: inhibition of Axl activity, phospho-Akt in-cell Western assay, Table 1.
Setting [4] is: Table 6, Hela cells, Axl antibody cross-linking stimulation, phospho-Akt chemiluminescence.
The mark [5] stands for this setting: inhibition of Axl activity, Table 1.
[6] abbreviates: Table 2, Hela cells, Axl antibody cross-linking stimulation, phospho-Akt chemiluminescence.

Usually IC50 stands for the concentration that gives 50% inhibition. As for `Nc1nc(Nc2ccc(OCCn3ccnc3)cc2)nn1C(=O)c1ccc2cc[nH]c2c1` [compound 375, 5-amino-1-(1H-indol-6-yl)carbonyl-3-[4-[2-(imidazol-1-yl)ethoxy]phenylamino]-1H-1,2,4-triazole], under setting [1], the IC50 was under 1 µM.
Compound `Nc1nc(Nc2ccc(OCCN3CCCCC3)cc2)nn1C(=O)Nc1ccc2c(c1)OCO2` [compound 35, 5-amino-N-(1,3-benzodioxol-5-yl)-3-[4-[2-(piperidin-1-yl)ethoxy]phenylamino]-1H-1,2,4-triazole-1-carboxamide] had an IC50 under setting [2] of 1 to 10 µM.
Consider `CN(C)c1ccc(C(=O)n2nc(Nc3ccc(OCCN4CC[C@H](F)C4)cc3)nc2N)cc1` [compound 385, 5-amino-1-(4-(dimethylamino)phenyl)carbonyl-3-[4-[2-((S)-3-fluoropyrrolidin-1-yl)ethoxy]phenylamino]-1H-1,2,4-triazole], for which the concentration for half-maximal inhibition (IC50) under setting [3] is under 1 µM.
In turn, `Cc1cccc(C(=O)n2nc(N)nc2Nc2ccc3c(c2)N(C(=O)OC(C)(C)C)CCO3)c1` [compound 167] had an IC50 under setting [4] of over 20 µM.
With `Cc1ccc(C(=O)n2nc(Nc3ccc4c(c3)OCCO4)nc2N)cc1Cl` [compound 249, 5-amino-1-[(3-chloro-4-methyl)phenyl]carbonyl-3-(1,4-benzodioxan-6-yl)-amino-1H-1,2,4-triazole], the IC50 under setting [5] was over 20 µM.
In turn, `CN(C)c1ccc(C(=O)n2nc(Nc3ccc(OCCCN4CCCC4)cc3)nc2N)cc1` [compound #8, 5-Amino-1-(4-(dimethylamino)phenyl)carbonyl-3-[4-[3-(pyrrolidin-1-yl)propoxy]phenylamino]-1H-1,2,4-triazole] returned an IC50 under setting [3] of under 1 µM.
`Nc1nc(Nc2ccc3c(c2)OCCO3)nn1C(=O)c1ccc([N+](=O)[O-])cc1` [compound 240, 5-amino-3-(1,4-benzodioxan-6-yl)amino-1-(4-nitrophenyl)carbonyl-1H-1,2,4-triazole] had an IC50 under setting [5] of over 20 µM.
`COc1ccc(C(=O)n2nc(Nc3ccc(OCCN4CCCC4)cc3)nc2N)cc1OC` [compound 198, 5-amino-1-(3,4-(dimethoxy)phenyl)carbonyl-3-[4-[2-(pyrrolidin-1-yl)ethoxy]phenylamino]-1H-1,2,4-triazole] came in with an IC50 under setting [3] of over 20 µM.
Compound `Nc1nc(Nc2ccc(OCCN3CCCC3)c(F)c2)nn1C(=O)c1ccc(-c2csnn2)cc1` [compound 306, 5-amino-1-(4-(1,2,3-thiadiazol-4-yl)phenyl)carbonyl-3-[3-fluoro-4-[2-(pyrrolidin-1-yl)ethoxy]phenylamino]-1H-1,2,4-triazole] returned an IC50 under setting [3] of under 1 µM.
Under setting [3], `CSc1ccc(C(=O)n2nc(Nc3ccc(OCCN4CCCC4)cc3)nc2N)cc1` [compound 287, 5-amino-1-(4-(methylthio)phenyl)carbonyl-3-[4-[2-(pyrrolidin-1-yl)ethoxy]phenylamino]-1H-1,2,4-triazole] had an IC50 of under 1 µM.
The compound `Cc1cc(C(=O)n2nc(N)nc2Nc2ccc3c(c2)OCCO3)ccc1F` [compound 241, 3-amino-5-(1,4-benzodioxan-6-yl)amino-1-[(4-fluoro-3-methyl)phenyl]carbonyl-1H-1,2,4-triazole] gave an IC50 under setting [6] of over 20 µM.
Turning to `Nc1nc(Nc2ccc(Br)cc2)nn1C(=O)c1ccc(Cl)cc1` [compound 218, 5-amino-3-(4-bromophenyl)amino-1-(4-chlorophenyl)carbonyl-1H-1,2,4-triazole], under setting [5], the IC50 is 1 to 10 µM.
In turn, `COC(=O)COc1cccc(Nc2nc(N)n(C(=O)c3cccc(C)c3)n2)c1` [compound 147, 5-amino-3-[3-(methoxycarbonylmethoxy)phenylamino]-1-(3-(methyl)phenyl)carbonyl-1H-1,2,4-triazole] displayed a concentration for half-maximal inhibition (IC50) under setting [5] of 1 to 10 µM.
Under “Table 8, Hela cells, Axl antibody cross-linking stimulation, phospho-Akt chemiluminescence”, `CC(=O)N(C)c1ccc(Nc2nc(N)nn2C(=O)NC2CCCC2)cc1` [compound 178, 5-[4-(acetyl(methyl)amino)phenyl]amino-3-amino-N-cyclopentyl-1H-1,2,4-triazole-1-carboxamide] yielded an IC50 of over 20 µM.
Turning to `Nc1nc(Nc2ccc(OCCN3CCCC3)cc2)nn1C(=O)c1ccc(OC(F)(F)F)cc1` [compound #23, 5-Amino-3-[4-[2-(pyrrolidin-1-yl)ethoxy]phenylamino]-1-(4-(trifluoromethoxy)phenyl)carbonyl-1H-1,2,4-triazole], the 50% inhibitory concentration (IC50) under setting [3] is under 1 µM.
On to `CC(C)Oc1ccc(C(=O)n2nc(Nc3ccc(OCCC4OCCO4)cc3)nc2N)cc1` [compound 158, 5-amino-3-[4-[2-(1,3-dioxolan-2-yl)ethoxy]phenylamino]-1-(4-(iso-propoxy)phenyl)carbonyl-1H-1,2,4-triazole], for which the half-inhibitory concentration (IC50) under setting [5] fell in the range of 1 to 10 µM.
Compound `CC(C)Oc1ccc(C(=O)n2nc(Nc3cccc(OCC(F)(F)F)c3)nc2N)cc1` [compound 139, 5-amino-1-(4-(iso-propoxy)phenyl)carbonyl-3-[3-(2,2,2-trifluoroethoxy)phenylamino]-1H-1,2,4-triazole] returned an IC50 under setting [5] of over 20 µM.
The compound `CS(=O)(=O)N1CCC(Nc2nc(N)nn2C(=O)c2c(F)cccc2F)CC1` [compound 391, 3-amino-1-(2,6-difluorophenyl)carbonyl-5-(1-methylsulfonylpiperidin-4-yl)amino-1H-1,2,4-triazole] had a half-inhibitory concentration (IC50) under setting [4] of over 20 µM.
The compound `Nc1nc(Nc2ccc3c(c2)OCCO3)nn1C(=O)c1ccc(Cl)cc1` [compound 95, 5-amino-1-(4-(chloro)phenyl)carbonyl-3-(1,4-benzodioxan-6-yl)amino-1H-1,2,4-triazole] displayed a half-maximal inhibitory concentration (IC50) under setting [5] of 1 to 10 µM.
`COc1cccc(NC(=O)n2nc(Nc3ccc(OCCN4CCCCC4)cc3)nc2N)c1` [compound 30, 5-amino-N-(3-methoxyphenyl)-3-[4-[2-(piperidin-1-yl)ethoxy]phenylamino]-1H-1,2,4-triazole-1-carboxamide] showed an IC50 under setting [2] of under 1 µM.
Take `CC(C)(C)Oc1cccc(C(=O)n2nc(N)nc2NC2C3C=CC(C3)C2C(N)=O)c1` (stereo not drawn) [compound 347, 3-amino-1-(3-(tert-butoxy)phenyl)carbonyl-5-[(3-(aminocarbonyl)bicyclo[2.2.1]hept-5-en-2-yl)amino]-1H-1,2,4-triazole]: the IC50 under setting [4] was over 20 µM.
`CC(C)Oc1ccc(C(=O)n2nc(Nc3ccc4c(c3)NC(=O)C(F)(F)O4)nc2N)cc1` [compound 63, 5-amino-3-(2,2-difluoro-2H-benzo[b][1,4]oxazin-3(4H)-on-6-yl)amino-1-(4-(iso-propoxy)phenyl)carbonyl-1H-1,2,4-triazole] had a half-inhibitory concentration (IC50) (Table 5, Hela cells, Axl antibody cross-linking stimulation, phospho-Akt chemiluminescence) of over 20 µM.
Consider `CC(C)(C)c1ccc(C(=O)n2nc(N)nc2Nc2ccc(N3CCCC3)cc2)cc1` [compound 298, 3-amino-1-(4-(tert-butyl)phenyl)carbonyl-5-[4-(pyrrolidin-1-yl)phenylamino]-1H-1,2,4-triazole], for which the IC50 under setting [6] was over 20 µM.
`CC(=O)Oc1ccccc1C(=O)n1nc(Nc2ccc3c(c2)OCCO3)nc1N` [compound 119, 1-(2-(acetoxy)phenyl)carbonyl-5-amino-3-(1,4-benzodioxan-6-yl)amino-1H-1,2,4-triazole] returned an IC50 under setting [5] of 1 to 10 µM.
In the case of `Nc1nc(Nc2ccc(OCCN3CCCC3)cc2)nn1C(=O)c1ccc2ncsc2c1` [compound 271, 5-amino-1-(benzo[d]thiazol-6-yl)carbonyl-3-[4-[2-(pyrrolidin-1-yl)ethoxy]phenylamino]-1H-1,2,4-triazole], the concentration for half-maximal inhibition (IC50) under setting [1] was in the range of 1 to 10 µM.
`Nc1nc(Nc2ccc3c(c2)OCCO3)nn1C(=O)c1ccc(OCCC2OCCO2)cc1` [compound 214] had an IC50 under setting [5] of 1 to 10 µM.
On to `COc1ccc(Nc2nc(N)n(C(=O)c3ccc(OC(C)C)cc3)n2)cc1` [compound 117, 5-amino-1-(4-(iso-propoxy)phenyl)carbonyl-3-[4-(methoxy)phenylamino]-1H-1,2,4-triazole], for which the IC50 under setting [5] was in the range of 1 to 10 µM.
On to `Cc1ccc(C(=O)n2nc(N)nc2Nc2ccc(N3CCCC3)cc2)cc1` [compound 301, 3-amino-1-(4-methylphenyl)carbonyl-5-(4-(pyrrolidin-1-yl)phenylamino]-1H-1,2,4-triazole], for which the half-maximal inhibitory concentration (IC50) under setting [6] was over 20 µM.
Compound `Cc1cc(C)cc(NC(=O)n2nc(Nc3ccc(OCCN4CCCCC4)cc3)nc2N)c1` [compound 199, 5-amino-N-(3,5-(dimethyl)phenyl)-3-[4-[2-(piperidin-1-yl)ethoxy]phenylamino]-1H-1,2,4-triazole-1-carboxamide] returned an IC50 under setting [2] of over 20 µM.
Turning to `Nc1nc(Nc2ccc(OCCN3CCCC3)cc2)nn1C(=O)c1ccccn1` [compound 203, 5-amino-1-(pyridin-2-yl)carbonyl-3-[4-[2-(pyrrolidin-1-yl)ethoxy]phenylamino]-1H-1,2,4-triazole], under setting [1], the IC50 is over 20 µM.
